Laboratory results published in patent publication US9833497B2, “Human originated EGF domain proteins and use of the same” (CHENGDU SOURCEBIO LIMITED-LIABILITY COMPANY, priority 2013, dated 2017).

Tests used:
Format in all cases: cell-based
[1] = tested on: Enterobacter cloacae; assay: MIC against Gram-negative bacteria: Enterobacter cloacae; details: 5×10^5 CFU/mL
Procedure, shortened: (§1)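 Purified recombinant human EGF domain proteins are tested by broth dilution in LB against a 5×10^5 CFU/mL inoculum, with two-fold serial dilutions run in triplicate. Plates are incubated at 37° C with shaking, and the MIC is read as the lowest protein concentration without growth.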

[2] = tested on: Aeromonas hydrophila; assay: MIC against Gram-negative bacteria: Aeromonas hydrophila; details: 5×10^5 CFU/mL
Procedure, shortened: as §1

[3] = tested on: Pseudomonas aeruginosa; assay: MIC against Gram-negative bacteria: Pseudomonas aeruginosa; details: 5×10^5 CFU/mL
Procedure, shortened: as §1

[4] = tested on: Klebsiella pneumonia; assay: MIC against Gram-negative bacteria: Klebsiella pneumonia; details: 5×10^5 CFU/mL
Procedure, shortened: as §1

[5] = tested on: Serratia marcescens; assay: MIC against Gram-negative bacteria: Serratia marcescens; details: 5×10^5 CFU/mL
Procedure, shortened: as §1

[6] = tested on: E. coli BL21; assay: MIC against Gram-negative bacteria: E. coli BL21; details: 5×10^5 CFU/mL
Procedure, shortened: as §1

[7] = tested on: Proteus mirabilis; assay: MIC against Gram-negative bacteria: Proteus mirabilis; details: 5×10^5 CFU/mL
Procedure, shortened: as §1

[8] = tested on: Citrobacter diversus; assay: MIC against Gram-negative bacteria: Citrobacter diversus; details: 5×10^5 CFU/mL
Procedure, shortened: as §1

[9] = tested on: E. coli DH5α; assay: Antibacterial activity: MIC and growth curve against E. coli DH5α in 96-well plate; details: minimal inhibitory concentration against E. coli DH5α; 96-well plate, 5×10^5 CFU/mL, 37° C., judged after 8 h
Procedure, shortened: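 Log-phase bacteria (OD600 ~0.5) resuspended in LB at 5×10^5 CFU/mL, exposed to recombinant protein at 50, 25, 12.5 μg/mL final in triplicate, 37 °C shaking at 175 rpm. OD600 read every 30 min; MIC is lowest concentration showing no growth.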

[10] = tested on: Moraxella catarrhalis; assay: MIC against Gram-negative bacteria: Moraxella catarrhalis; details: 5×10^5 CFU/mL
Procedure, shortened: as §1

[11] = tested on: Proteus vulgaris; assay: MIC against Gram-negative bacteria: Proteus vulgaris; details: 5×10^5 CFU/mL
Procedure, shortened: as §1

[12] = 10 h cultivation at 37° C., two-fold serial dilution

PRT794 (SSRCGCKNDAVCSPVDGSCTCKAGWHGVDCS; listed as Homo sapiens)
MIC (μg/mL) E. cloacae ([1]; E. cloacae, 10 h cultivation at 37° C.): 25 µg/mL
MIC (μg/mL) A. hydrophila ([2]; A. hydrophila, 10 h cultivation at 37° C.): 50 µg/mL
MIC (μg/mL) P. aeruginosa ([3]; P. aeruginosa, 10 h cultivation at 37° C.): 50 µg/mL
MIC (μg/mL) K. pneumonia ([4]; K. pneumonia, 10 h cultivation at 37° C.): 12.5 µg/mL
MIC (μg/mL) S. marcescens ([5]; S. marcescens, 10 h cultivation at 37° C.): 12.5 µg/mL
MIC (μg/mL) E. coli BL21 ([6]; E. coli BL21, 10 h cultivation at 37° C.): 12.5 µg/mL
MIC (μg/mL) P. mirabilis ([7]; P. mirabilis, 10 h cultivation at 37° C.): 25 µg/mL
MIC (μg/mL) C. diversus ([8]; C. diversus, 10 h cultivation at 37° C.): 25 µg/mL
MIC [9]: 50 µg/mL
MIC (μg/mL) M. catarrhalis ([10]; M. catarrhalis, 10 h cultivation at 37° C.): 12.5 µg/mL
MIC (μg/mL) P. vulgaris ([11]; P. vulgaris, 10 h cultivation at 37° C.): 50 µg/mL

PRT694 (DVDECRRVPPPCAPGRCENSPGSFRCVCGPGFRAGPRAAECL; listed as Homo sapiens)
MIC E. cloacae ([1]; 96-well plate, 37° C., 10 h): 50 µg/mL
MIC A. hydrophila ([2]; 96-well plate, 37° C., 10 h): 25 µg/mL
MIC P. aeruginosa ([3]; 96-well plate, 37° C., 10 h): 50 µg/mL
MIC K. pneumonia ([4]; 96-well plate, 37° C., 10 h): 25 µg/mL
MIC S. marcescens ([5]; 96-well plate, 37° C., 10 h): 50 µg/mL
MIC E. coli BL21 ([6]; 96-well plate, 37° C., 10 h): 25 µg/mL
MIC P. mirabilis ([7]; 96-well plate, 37° C., 10 h): 50 µg/mL
MIC C. diversus ([8]; 96-well plate, 37° C., 10 h): 12.5 µg/mL
MIC [9]: 50 µg/mL
MIC M. catarrhalis ([10]; 96-well plate, 37° C., 10 h): 25 µg/mL
MIC P. vulgaris ([11]; 96-well plate, 37° C., 10 h): 12.5 µg/mL

PRT523 (CSCGRRLCEEMTGQCRCPPRTVRPQCEVCETHSFSFHPMAGCEG; listed as Homo sapiens)
MIC against E. cloacae ([1]; 96-well plate, 37° C., 10 h): 12.5 µg/mL
MIC against A. hydrophila ([2]; 96-well plate, 37° C., 10 h): 25 µg/mL
MIC against P. aeruginosa ([3]; 96-well plate, 37° C., 10 h): 50 µg/mL
MIC against K. pneumonia ([4]; 96-well plate, 37° C., 10 h): 25 µg/mL
MIC against S. marcescens ([5]; 96-well plate, 37° C., 10 h): 12.5 µg/mL
MIC against E. coli BL21 ([6]; 96-well plate, 37° C., 10 h): 25 µg/mL
MIC against P. mirabilis ([7]; 96-well plate, 37° C., 10 h): 50 µg/mL
MIC against C. diversus ([8]; 96-well plate, 37° C., 10 h): 50 µg/mL
MIC [9]: 12.5 µg/mL
MIC against M. catarrhalis ([10]; 96-well plate, 37° C., 10 h): 12.5 µg/mL
MIC against P. vulgaris ([11]; 96-well plate, 37° C., 10 h): 12.5 µg/mL

PRT1316 (ELPVCQELRCPQNTQCSAEAPSCRCLPGYTQQGSE; listed as Homo sapiens)
MIC against E. cloacae ([1]; Enterobacter cloacae, 96-well plate, 37° C., 10 h): 12.5 µg/mL
MIC against A. hydrophila ([2]; Aeromonas hydrophila, 96-well plate, 37° C., 10 h): 50 µg/mL
MIC against P. aeruginosa ([3]; Pseudomonas aeruginosa, 96-well plate, 37° C., 10 h): 50 µg/mL
MIC against K. pneumonia ([4]; Klebsiella pneumonia, 96-well plate, 37° C., 10 h): 25 µg/mL
MIC against S. marcescens ([5]; Serratia marcescens, 96-well plate, 37° C., 10 h): 12.5 µg/mL
MIC against E. coli BL21 ([6]; E. coli BL21, 96-well plate, 37° C., 10 h): 12.5 µg/mL
MIC against P. mirabilis ([7]; Proteus mirabilis, 96-well plate, 37° C., 10 h): 12.5 µg/mL
MIC against C. diversus ([8]; Citrobacter diversus, 96-well plate, 37° C., 10 h): 12.5 µg/mL
MIC [9]: 50 µg/mL
MIC against M. catarrhalis ([10]; Moraxella catarrhalis, 96-well plate, 37° C., 10 h): 50 µg/mL
MIC against P. vulgaris ([11]; Proteus vulgaris, 96-well plate, 37° C., 10 h): 50 µg/mL

PRT1154 (DGTACGYNTCRNGGECTVNGTTFSCRCLPDWAGNTCN; listed as Homo sapiens)
MIC E. cloacae [1, 12]: 25 µg/mL
MIC A. hydrophila [2, 12]: 100 µg/mL
MIC P. aeruginosa [3, 12]: 50 µg/mL
MIC K. pneumonia [4, 12]: 12.5 µg/mL
MIC S. marcescens [5, 12]: 12.5 µg/mL
MIC E. coli BL21 [6, 12]: 12.5 µg/mL
MIC P. mirabilis [7, 12]: 12.5 µg/mL
MIC C. diversus [8, 12]: 12.5 µg/mL
MIC [9]: 50 µg/mL
MIC M. catarrhalis [10, 12]: 12.5 µg/mL
MIC P. vulgaris [11, 12]: 12.5 µg/mL

PRT602 (CKCHPQGSVGSSCSRLGGQCQCKPLVVGRCCDRCSTGSYDLGHHGCHP; listed as Homo sapiens)
MIC E. cloacae ([1]; 96-well plate, 37° C., 10 h): 50 µg/mL
MIC A. hydrophila ([2]; 96-well plate, 37° C., 10 h): 12.5 µg/mL
MIC P. aeruginosa ([3]; 96-well plate, 37° C., 10 h): 50 µg/mL
MIC K. pneumonia ([4]; 96-well plate, 37° C., 10 h): 12.5 µg/mL
MIC S. marcescens ([5]; 96-well plate, 37° C., 10 h): 12.5 µg/mL
MIC E. coli BL21 ([6]; 96-well plate, 37° C., 10 h): 12.5 µg/mL
MIC P. mirabilis ([7]; 96-well plate, 37° C., 10 h): 50 µg/mL
MIC C. diversus ([8]; 96-well plate, 37° C., 10 h): 50 µg/mL
MIC [9]: 50 µg/mL
MIC M. catarrhalis ([10]; 96-well plate, 37° C., 10 h): 12.5 µg/mL
MIC P. vulgaris ([11]; 96-well plate, 37° C., 10 h): 25 µg/mL
